Residue numbers refer to the chain shown, from its start.
What was measured:
[1] = biological target: T1, NavMs voltage-gated sodium channel (Magnetococcus marinus, UniProt A0L5S6); assay: whole-cell voltage-clamp of transfected CHO-K1 cells; type: cell-based
T1 construct: gene Mmc1_0798; wild-type NavMs α-subunit in CHO-K1 cells, co-transfected with β1-subunit and eGFP
T1 sequence (A0L5S6 1-274): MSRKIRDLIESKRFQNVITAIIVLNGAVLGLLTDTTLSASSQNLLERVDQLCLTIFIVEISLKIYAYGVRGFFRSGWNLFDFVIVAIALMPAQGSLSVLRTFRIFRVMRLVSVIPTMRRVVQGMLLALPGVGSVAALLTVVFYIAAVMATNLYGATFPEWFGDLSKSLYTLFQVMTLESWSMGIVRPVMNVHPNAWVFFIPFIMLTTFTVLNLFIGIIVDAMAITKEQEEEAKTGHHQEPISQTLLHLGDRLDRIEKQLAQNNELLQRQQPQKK

[2] = biological target: T2, NavMs voltage-gated sodium channel (Magnetococcus marinus, UniProt A0L5S6, T207A); assay: whole-cell voltage-clamp, block at […] CBD; type: cell-based
T2 construct: gene Mmc1_0798; T207A NavMs α-subunit in CHO-K1 cells, co-transfected with β1-subunit and eGFP
T2 sequence (A0L5S6 1-274 T207A): T1 sequence (A0L5S6 1-274) with T207A

C=C(C)[C@@H]1CCC(C)=C[C@H]1c1c(O)cc(CCCCC)cc1O [Cannabidiol]
IC50 [1]: 17.8 ± 0.5 µM | whole-cell voltage-clamp, block at 10 μM CBD [2]: The mutation of the threonine side chain to a smaller alanine side chain results in a modest reduction in the CBD block

From publication PMC7641581, “Cannabidiol interactions with voltage-gated sodium channels” (eLife, 2020)
